These results are taken from patent US20140357688A1, “METHOD FOR INHIBITING EZH2 EXPRESSION IN BREAST CANCER CELLS” (Yung Shin Pharm. Ind. Co., Ltd., priority 2013, published 2014).

In one series the test system is EZH2 mRNA. As to the kind of experiment: Quantitative real-time RT-PCR of EZH2 mRNA. In kind it is cell-based, human. The following applies: 3 μM YC-1, 3 or 6 h; less inhibition than protein levels. How it is done:
Cells were treated with 3 μM YC-1 for 3 or 6 h. Cells were collected for the detection of EZH2 mRNA expression with quantitative real-time RT-PCR described in Materials and Methods.
Total RNA was isolated from MDA-MB-468 cells treated with YC-1 and extracted using TRIzol® Reagent (Invitrogen). cDNA strain was reverse transcribed by oligo dT(15) using M-MLV reverse transcriptase (Invitrogen) according to the manufacturer's instructions. Quantitative real-time RT-PCR analysis was performed by a LightCycler® 480 II RTPCR system (Roche Applied Sciences, Manheim, Germany) using Fast Start DNA Master Plus SYBR Green I kit (Roche Applied Sciences). PCR primers were as follows: human EZH2 (NM_004456.4) 5′-[…]-3′ (Forward), 5′-[…]-3′ (Reverse); human GAPDH (NM_002046.3) 5′-[…]-3′ (Forward); 5′-[…]-3′ (Reverse). The expression level of EZH2 mRNA was normalized against the level of GAPDH mRNA in the same sample.

A further series concerns MDA-MB-468 cells. As to the kind of experiment: Morphological analysis of apoptosis by fluorescent staining (FDA/PI). The format is cell-based, human. The following applies: 3 μM YC-1, after 6 h-treatment. As to the method: (A) Cells were treated with indicated concentration of YC-1 for 6, 24, and 48 h. Cell viability was determined by MTT method. (B) MDA-MB-468 cells were treated with 3 μM YC-1 for 0, 6, and 12 h, and then stained with fluorescence diacetate (FDA) and propidium iodide (PI). Cell morphology was assessed by fluorescence microscopy with magnification ×20 (upper 3 rows) or ×40 (lowest row). (C) MDA-MB-468 cells were treated with 3 μM YC-1 for 24 h, cells were lysed and subjected to western blot analysis described in Materials and Methods. β-actin is a loading control. Blots were representative of results from three independent experiments. (D) Cells were treated with vehicle (DMSO, as control) or 3 μM YC-1 for 6 h. The cell cycles were analyzed by flow cytometry. (E) Cells were treated with indicated concentration of YC-1 and then performed with clonogenic assay.
Vital and apoptotic cells were observed under staining with fluorescein diacetate (2 mg/ml) and propidium iodide (4 mg/ml) for 10 min. Cells were visualized and recorded on a LeicaDC300 microscope with digital camera.

For a further series, the system named is MDA-MB-468 xenograft. As to the kind of experiment: MDA-MB-468 breast cancer xenograft animal model. The format is in vivo, Nu/Nu mice. How it is done:
MDA-MB-468 cells were used to inoculate Nu/Nu mice. (A, left) Tumor bearing mice were given vehicle (10 μl DMSO, CTL) or YC-1 (30 and 60 mg/kg/day) by ip treatment. (B, right) Tumor bearing mice were given vehicle (normal saline, CTL) or YC-1-succinate (YC-1-S; 20, 40, and 80 mg/kg/day) by oral administration. During treatment period, tumor volume and body weights of mice were measured once per 3 days. Data are expressed as mean of tumor volume (mm^3)±S.E.M. from 6 mice (YC-1 treatment) or 10 mice (YC-1-S treatment). Tumor weights (B) and body weights of mice (C) in control and YC-1/YC-1-S-treated groups were recorded.
Nu/Nu female mice (four weeks old) were from National Laboratory Animal Center, Taipei, Taiwan. Mice were maintained under procedures and guidelines from the Institutional Animal Care and Use of the National Health Research Institutes. MDA-MB-468 breast cancer cells (5×10^6 cells per mouse) were suspended in 0.1 ml of Matrigel solution (50%, v/v, Matrigel in 1×PBS) and inoculated into the mammary fat pads of nude mice. When the tumor masses reached to 100 mm^3, the tumor bearing mice were randomly divided into different groups for different dosage of YC-1 treatments. The mice were given by intraperitoneal injection with YC-1 or oral administration of YC-1-succinate. Tumor size and body weights of mice were measured once per 3 days and tumor volume (mm^3) was calculated as the equation: length×[…]. At the end of experiments, mice were sacrificed and tumor nodules were dissected and weighted. Tumor tissues were subjected to western blot analysis.

A further series relates to EGFR. As to the kind of experiment: Western blot of EGFR phosphorylation and expression. In kind it is cell-based, human. How it is done: Cells were incubated with 3 μM YC-1 for indicated time. Cells were harvested and subjected to western blot analysis for the detection of protein expression. Cells were lysed in PBS containing proteinase inhibitor and phosphatase inhibitors and sonication. Protein concentration was measured using the Bio-Rad protein assay kit (Bio-Rad Laboratories, Hercules, Calif., USA). Lysate protein was separated by electrophoresis of SDS-PAGE and transferred to Immobilon P membrane (EMD Millipore). The membranes were incubated with appropriate primary antibodies and horseradish peroxidase-conjugated secondary antibodies (EMD Millipore). The signaling was visualized using Chemiluminescence substrate kit (EMD Millipore) and collected by the Luminesence image analyzer, LAS4000 (Fuji Photo Film Co., Tokyo, Japan). The band intensities were analyzed and quantified by the Multi Gauge software (Fuji Photo Film).
A general note: In western blotting, separated proteins are transferred to a membrane and probed.

For another series, the system named is Ras. As to the kind of experiment: Ras activation (Raf-RBD pull-down). The format is cell-based, human. Conditions: 3 μM YC-1. As to the method: (A) Cells were pretreated with DMSO (as control), Bay-43-9006 (Bay, 10 μM), farnyesyl thiosalicylic acid (FTS, 10 μM), Src inhibitor I (SrcI, 10 μM), and genistein (Gen, 10 μM), then followed by YC-1 (3 μM) incubation for 6 h. Cells were harvested and lysed for western blot analysis (left, right) and cell viability (middle). The levels of protein expression were quantitated and shown under blots. (B) MDA-MB-468 cells were transfected with shRNA of Raf-1 or Src. After stimulation of 3 μM YC-1 for 4 h, cell protein was subjected to western blot analysis. (C) Cells were incubated with 3 μM YC-1 for indicated time and then lysed for detection of Src, Raf-1, and MEK activation by using specific anti-phosphorylated antibodies. (D) Cells were treated with 3 μM YC-1 for indicated time. Cells were lysed and detected Ras activation by using Raf-RBD conjugated agarose to pull-down Ras-GTP. The total Ras in cell lysate was also detected. […] Cells were lysed and protein expression was determined by western blot analysis. (F) Cells were induced by 3 μM YC-1 in the presence of indicated inhibitors. Cells were lysed and subjected to EZH2 ubiquitination assay.
Ras-GTP has a high affinity with Ras binding domain of Raf-1 (Raf-RBD). Accordingly, GST fusion protein containing Raf-RBD was applied to detect Ras activation. […]

For `OCc1ccc(-c2nn(Cc3ccccc3)c3ccccc23)o1` [YC-1, 3-(5′-hydroxymethyl-2′-furyl)-1-benzyl indazole], the “mRNA expression of EZH2” value with EZH2 mRNA is on record as “inhibitory effect”. In addition, in the series on MDA-MB-468 cells, the “morphological changes (apoptosis)” value was “obviously morphological changes with apoptotic characteristics”. Besides, the tumor growth result with MDA-MB-468 xenograft (30 and 60 mg/kg by intraperitoneal injection) was “significantly inhibited the tumor growth”. Further, in the series on MDA-MB-468 xenograft (30 and 60 mg/kg/day ip), the “body weights of mice” value is on record as “not affected” and the tumor weight entry is “dose-dependently reduced tumor weight”. Also, the EGFR phosphorylation entry in the series with EGFR (3 μM YC-1) is “rapidly induced EGFR phosphorylation”. Further, the EGFR protein expression result in the series on EGFR (3 μM YC-1, after 6 h treatment) is listed as “significant decrease”. Further, the Ras activation entry with Ras is reported as “could not induce Ras activation”.
